From PubChem BioAssay (NCI)
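Briefly, cells in 96-well plates were exposed to five compound concentrations for 48 h, and endpoints were estimated by linear interpolation. TGI denotes the concentration required for complete inhibition of growth.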

Legend:
Experiment in all cases: NCI anticancer screen, dose series, 48 h
786-0 renal = test system: 786-0 renal
A498 renal = test system: A498 renal
A549 NSCLC = test system: A549 NSCLC
ACHN renal = test system: ACHN renal
BT-549 breast = test system: BT-549 breast
CAKI-1 renal = test system: CAKI-1 renal
COLO 205 colon = test system: COLO 205 colon
EKVX NSCLC = test system: EKVX NSCLC
HCC-2998 colon = test system: HCC-2998 colon
HCT-116 colon = test system: HCT-116 colon
HCT-15 colon = test system: HCT-15 colon
HOP-62 NSCLC = test system: HOP-62 NSCLC
HOP-92 NSCLC = test system: HOP-92 NSCLC
HS 578T breast = test system: HS 578T breast
HT29 colon = test system: HT29 colon
IGROV1 ovarian = test system: IGROV1 ovarian
K-562 leukemia = test system: K-562 leukemia
KM12 colon = test system: KM12 colon
LOX IMVI melanoma = test system: LOX IMVI melanoma
M14 melanoma = test system: M14 melanoma
MALME-3M melanoma = test system: MALME-3M melanoma
MCF7 breast = test system: MCF7 breast
MDA-MB-231 breast = test system: MDA-MB-231 breast
MDA-MB-435 = test system: MDA-MB-435
MDA-N = test system: MDA-N
MOLT-4 leukemia = test system: MOLT-4 leukemia
NCI-H226 lung = test system: NCI-H226 lung
NCI-H23 lung = test system: NCI-H23 lung
NCI-H460 lung = test system: NCI-H460 lung
NCI-H522 lung = test system: NCI-H522 lung
NCI/ADR-RES ovarian = test system: NCI/ADR-RES ovarian
OVCAR-4 ovarian = test system: OVCAR-4 ovarian
OVCAR-5 ovarian = test system: OVCAR-5 ovarian
OVCAR-8 ovarian = test system: OVCAR-8 ovarian
PC-3 prostate = test system: PC-3 prostate
RPMI-8226 leukemia = test system: RPMI-8226 leukemia
RXF 393 renal = test system: RXF 393 renal
SF-268 CNS = test system: SF-268 CNS
SF-295 CNS = test system: SF-295 CNS
SF-539 CNS = test system: SF-539 CNS
SK-MEL-2 melanoma = test system: SK-MEL-2 melanoma
SK-MEL-28 melanoma = test system: SK-MEL-28 melanoma
SK-MEL-5 melanoma = test system: SK-MEL-5 melanoma
SK-OV-3 ovarian = test system: SK-OV-3 ovarian
SN12C renal = test system: SN12C renal
SNB-19 CNS = test system: SNB-19 CNS
SNB-75 CNS = test system: SNB-75 CNS
SR leukemia = test system: SR leukemia
SW-620 colon = test system: SW-620 colon
T-47D breast = test system: T-47D breast
TK-10 renal = test system: TK-10 renal
U251 CNS = test system: U251 CNS
UACC-257 melanoma = test system: UACC-257 melanoma
UACC-62 melanoma = test system: UACC-62 melanoma
UO-31 renal = test system: UO-31 renal
CCRF-CEM leukemia = test system: CCRF-CEM leukemia
DU-145 prostate = test system: DU-145 prostate
HL-60(TB) leukemia = test system: HL-60(TB) leukemia
OVCAR-3 ovarian = test system: OVCAR-3 ovarian

For `O=C1/C(=C/c2cccc([N+](=O)[O-])c2)N=C(c2ccccc2)N1c1nc2ccc(Sc3ccccc3)cc2[nH]1`, the TGI (786-0 renal) was greater than 100 µM, the TGI (A498 renal) was greater than 100 µM and the TGI (A549 NSCLC) was greater than 100 µM. The TGI (ACHN renal) was greater than 100 µM, the TGI (BT-549 breast) was greater than 100 µM and the TGI (CAKI-1 renal) was greater than 100 µM. The TGI (COLO 205 colon) was 96.8 µM, the TGI (EKVX NSCLC) was greater than 100 µM and the TGI (HCC-2998 colon) was greater than 100 µM. The TGI (HCT-116 colon) was greater than 100 µM, the TGI (HCT-15 colon) was greater than 100 µM and the TGI (HOP-62 NSCLC) was greater than 100 µM. It also gave a TGI (HOP-92 NSCLC) greater than 100 µM, a TGI (HS 578T breast) greater than 100 µM and a TGI (HT29 colon) greater than 100 µM. The TGI (IGROV1 ovarian) was greater than 100 µM, the TGI (K-562 leukemia) was greater than 100 µM and the TGI (KM12 colon) was greater than 100 µM. For the same compound, the TGI (LOX IMVI melanoma) was greater than 100 µM, the TGI (M14 melanoma) was greater than 100 µM and the TGI (MALME-3M melanoma) was greater than 100 µM. For the same compound, the TGI (MCF7 breast) was greater than 100 µM, the TGI (MDA-MB-231 breast) was greater than 100 µM and the TGI (MDA-MB-435) was 37 µM. It also gave a TGI (MDA-N) of 33.3 µM, a TGI (MOLT-4 leukemia) greater than 100 µM and a TGI (NCI-H226 lung) greater than 100 µM. It also gave a TGI (NCI-H23 lung) greater than 100 µM, a TGI (NCI-H460 lung) greater than 100 µM and a TGI (NCI-H522 lung) greater than 100 µM. It also gave a TGI (NCI/ADR-RES ovarian) greater than 100 µM, a TGI (OVCAR-4 ovarian) greater than 100 µM and a TGI (OVCAR-5 ovarian) greater than 100 µM. It also gave a TGI (OVCAR-8 ovarian) greater than 100 µM, a TGI (PC-3 prostate) greater than 100 µM and a TGI (RPMI-8226 leukemia) greater than 100 µM. It also gave a TGI (RXF 393 renal) greater than 100 µM, a TGI (SF-268 CNS) greater than 100 µM and a TGI (SF-295 CNS) greater than 100 µM. The TGI (SF-539 CNS) was greater than 100 µM, the TGI (SK-MEL-2 melanoma) was greater than 100 µM and the TGI (SK-MEL-28 melanoma) was greater than 100 µM. It also gave a TGI (SK-MEL-5 melanoma) greater than 100 µM, a TGI (SK-OV-3 ovarian) greater than 100 µM and a TGI (SN12C renal) greater than 100 µM. For the same compound, the TGI (SNB-19 CNS) was greater than 100 µM, the TGI (SNB-75 CNS) was greater than 100 µM and the TGI (SR leukemia) was greater than 100 µM. It also gave a TGI (SW-620 colon) greater than 100 µM, a TGI (T-47D breast) greater than 100 µM and a TGI (TK-10 renal) greater than 100 µM. The TGI (U251 CNS) was greater than 100 µM, the TGI (UACC-257 melanoma) was greater than 100 µM and the TGI (UACC-62 melanoma) was greater than 100 µM. For the same compound, the TGI (UO-31 renal) was greater than 100 µM.

`O=C(NC(=S)Nc1ccc(Br)cc1)c1ccc2c(c1)Sc1ccccc1O2` gave a TGI (786-0 renal) greater than 100 µM, a TGI (A498 renal) of 66.5 µM and a TGI (A549 NSCLC) greater than 100 µM. The TGI (ACHN renal) was greater than 100 µM, the TGI (BT-549 breast) was greater than 100 µM and the TGI (CCRF-CEM leukemia) was greater than 100 µM. The TGI (COLO 205 colon) was greater than 100 µM, the TGI (DU-145 prostate) was greater than 100 µM and the TGI (HCT-116 colon) was greater than 100 µM. It also gave a TGI (HCT-15 colon) greater than 100 µM, a TGI (HL-60(TB) leukemia) greater than 100 µM and a TGI (HOP-62 NSCLC) greater than 100 µM. For the same compound, the TGI (HOP-92 NSCLC) was 74.9 µM, the TGI (HS 578T breast) was greater than 100 µM and the TGI (HT29 colon) was greater than 100 µM. The TGI (IGROV1 ovarian) was greater than 100 µM, the TGI (K-562 leukemia) was greater than 100 µM and the TGI (KM12 colon) was greater than 100 µM. For the same compound, the TGI (LOX IMVI melanoma) was greater than 100 µM, the TGI (M14 melanoma) was greater than 100 µM and the TGI (MALME-3M melanoma) was greater than 100 µM. It also gave a TGI (MCF7 breast) greater than 100 µM, a TGI (MDA-MB-231 breast) greater than 100 µM and a TGI (MDA-MB-435) greater than 100 µM. It also gave a TGI (MDA-N) greater than 100 µM, a TGI (MOLT-4 leukemia) greater than 100 µM and a TGI (NCI-H226 lung) greater than 100 µM. For the same compound, the TGI (NCI-H23 lung) was greater than 100 µM, the TGI (NCI-H460 lung) was greater than 100 µM and the TGI (NCI-H522 lung) was greater than 100 µM. For the same compound, the TGI (NCI/ADR-RES ovarian) was greater than 100 µM, the TGI (OVCAR-3 ovarian) was greater than 100 µM and the TGI (OVCAR-5 ovarian) was greater than 100 µM. The TGI (OVCAR-8 ovarian) was greater than 100 µM, the TGI (PC-3 prostate) was greater than 100 µM and the TGI (SF-268 CNS) was greater than 100 µM. It also gave a TGI (SF-295 CNS) greater than 100 µM, a TGI (SF-539 CNS) greater than 100 µM and a TGI (SK-MEL-2 melanoma) greater than 100 µM. For the same compound, the TGI (SK-MEL-28 melanoma) was greater than 100 µM, the TGI (SK-MEL-5 melanoma) was greater than 100 µM and the TGI (SK-OV-3 ovarian) was greater than 100 µM. The TGI (SN12C renal) was greater than 100 µM, the TGI (SNB-19 CNS) was greater than 100 µM and the TGI (SNB-75 CNS) was 19.3 µM. For the same compound, the TGI (SR leukemia) was greater than 100 µM, the TGI (SW-620 colon) was greater than 100 µM and the TGI (T-47D breast) was greater than 100 µM. The TGI (TK-10 renal) was greater than 100 µM, the TGI (U251 CNS) was greater than 100 µM and the TGI (UACC-257 melanoma) was greater than 100 µM. The TGI (UACC-62 melanoma) was greater than 100 µM and the TGI (UO-31 renal) was greater than 100 µM.
